Data from patent US8889722B2, “Pharmaceutical composition containing optically active compound having thrombopoietin receptor agonist activity, and intermediate therefor” (Shionogi & Co., Ltd., priority 2007, dated 2014).

Tested on: not given
Experiment: not given
Details: not given

SMILES	melting point
CCCCCC[C@H](OC)c1cccc(-c2csc(NC(=O)c3cc(Cl)c(/C=C(\C)C(=O)O)c(Cl)c3)n2)c1OC [Compound C-1B, (S)-(E)-3-(2,6-dichloro-4-{4-[2-methyloxy-3-(1-methyloxyheptyl)-phenyl]thiazol-2-ylcarbamoyl}phenyl)-2-methylacrylic acid]	162 to 164 °C

Target: T1, human TPO receptor (Homo sapiens, UniProt P40238)
T1 construct: expressed in transfected cells; host or cells: BaF-B03 (mouse pro-B cell line), strain BaF/hTPOR
T1 sequence (P40238 26-635): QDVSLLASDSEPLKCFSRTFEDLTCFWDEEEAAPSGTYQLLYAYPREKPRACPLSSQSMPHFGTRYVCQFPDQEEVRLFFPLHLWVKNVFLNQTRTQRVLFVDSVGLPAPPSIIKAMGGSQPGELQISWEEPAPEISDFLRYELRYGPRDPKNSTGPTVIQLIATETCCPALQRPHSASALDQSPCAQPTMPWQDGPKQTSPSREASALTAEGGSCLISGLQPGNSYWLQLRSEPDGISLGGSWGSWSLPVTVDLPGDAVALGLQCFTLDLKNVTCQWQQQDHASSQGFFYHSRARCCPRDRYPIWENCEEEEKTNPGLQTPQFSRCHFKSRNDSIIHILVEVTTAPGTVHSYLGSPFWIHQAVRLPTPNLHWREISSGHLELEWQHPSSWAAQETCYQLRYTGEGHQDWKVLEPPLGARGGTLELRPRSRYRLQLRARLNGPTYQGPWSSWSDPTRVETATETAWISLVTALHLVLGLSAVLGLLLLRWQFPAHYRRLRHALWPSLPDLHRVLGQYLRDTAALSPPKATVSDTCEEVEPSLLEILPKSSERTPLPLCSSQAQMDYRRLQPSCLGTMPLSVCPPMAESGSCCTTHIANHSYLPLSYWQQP
Experiment: TPO receptor responsiveness: proliferation of TPO-dependent BaF/hTPOR cells (WST-1)
Assay type: cell-based
Details: 20 hours culture, WST-1 absorption at 450 nm, concentration exhibiting half-maximum responsiveness of human TPO, read-out: ED50 (the source's name)
Description: TPO receptor responsiveness of the compound represented by the formula (I) was measured using TPO-dependent cell strain BaF/hTPOR made by introducing a human TPO receptor gene into a BaF-B03 cell according to the method described in Collins et al., J. Cell. Physiol., 137: 293-298 (1988). A nucleotide sequence of a gene encoding thrombopoietin receptor is described in Vigon et al., Proc. Natl. Acad. Sci, 89:5640-5644 (1992). […] A BAF/hTPOR cell proliferated in a RPMI medium with 10% WEHI-3 culture solution added thereto was washed with PBS once, suspended in a RPMI medium with no WHEHI-3 culture solution added thereto, and cells were seeded on a 96-well microplate at a 5×10^4/well, and the present compound or TPO was added thereto. After cultured at 37° C. for 20 hours under 5% CO2 atmosphere, a WST-1 reagent (manufactured by Takara Shuzo, Co., Ltd) being a cell proliferation determination reagent was added, and absorption at 450 nm was measured after 4 hours.

SMILES	EC50
CCCCCC[C@@H](OC)c1cccc(-c2csc(NC(=O)c3cc(Cl)c(/C=C(\C)C(=O)O)c(Cl)c3)n2)c1OC [Compound C-1A, (R)-(E)-3-(2,6-dichloro-4-{4-[2-methyloxy-3-(1-methyloxyheptyl)phenyl]thiazol-2-ylcarbamoyl}phenyl)-2-methylacrylic acid]	3.09 nM
CCCCCC[C@H](OC)c1cccc(-c2csc(NC(=O)c3cc(Cl)c(/C=C(\C)C(=O)O)c(Cl)c3)n2)c1OC [Compound C-1B, (S)-(E)-3-(2,6-dichloro-4-{4-[2-methyloxy-3-(1-methyloxyheptyl)-phenyl]thiazol-2-ylcarbamoyl}phenyl)-2-methylacrylic acid]	2.08 nM
CCCCCCO[C@H](C)c1cccc(-c2csc(NC(=O)c3cc(Cl)c(/C=C(\C)C(=O)O)c(Cl)c3)n2)c1OC [Compound C-3A, (R)-(E)-3-(2,6-dichloro-4-{4-[3-(1-hexyloxyethyl)-2-methyloxyphenyl]thiazol-2-ylcarbamoyl}phenyl)-2-methylacrylic acid]	1.4 nM
CCCCCCO[C@@H](C)c1cccc(-c2csc(NC(=O)c3cc(Cl)c(/C=C(\C)C(=O)O)c(Cl)c3)n2)c1OC [Compound C-3B, (S)-(−)-(E)-3-(2,6-dichloro-4-{4-[3-(1-hexyloxyethyl)-2-methyloxyphenyl]thiazol-2-ylcarbamoyl}phenyl)-2-methylacrylic acid]	1.09 nM
CCCO[C@H](c1cccc(-c2csc(NC(=O)c3cc(Cl)c(/C=C(\C)C(=O)O)c(Cl)c3)n2)c1OC)C(C)(C)C [Compound C-9B, (S)-(E)-3-(2,6-dichloro-4-{4-[3-(2,2-dimethyl-1-propyloxypropyl)-2-methyloxyphenyl]thiazol-2-ylcarbamoyl}phenyl)-2-methylacrylic acid]	0.09 nM
